From patent US10563272B2, “Compositions comprising Metarhizium fungi and use thereof as a pesticide” (Cotton Research and Development Corporation, priority 2015, dated 2020)

Experiments:
predatory bugs = test: Foliar spray trial on Bollgard II cotton, Norwood 2010-11 (Example 7): predatory bugs; type: in vivo, Hemiptera (Nabidae, Lygaeidae, Pentatomidae); conditions: fipronil 62.5 mL/ha; for number of predatory bugs per meter: 1st spray, BC 667/DAT 511 0.50 L/ha; for number of predatory bugs per metre: 2nd spray, BC 667/DAT 511 0.5 L/ha
Protocol: The trial was conducted on commercial Bollgard II® cotton crops at Norwood near Moree, NSW from 5 Dec. 2010 to 19 Feb. 2011. The cotton was at the early squaring stage, when it was attractive to green mirids (Khan et al. 2004).
The study evaluated the efficacy of the following treatments against green mirids, green vegetable bugs and predatory insects: • 1. 500 mL/ha BC 667 spore in oil (1×10^7 spores/ml); • 2. 500 mL/ha DAT 511 spore in oil (1×10^7 spores/ml); • 3. 62.5 mL/ha Fipronil (conventional insecticide); and • 4. Unsprayed (control).
The treatment plots were arranged in a randomized complete block design with four replicates per treatment. Each replicated plot measured 0.5 ha. Foliar application of each treatment was made on 18 Jan. 2011 using a ground spray rig fitted with flat fan nozzles to achieve a droplet size of 80 250 μm. The treatment was applied in the mornings when temperature was between 20° C. and 28° C. The timing of treatment was based on an economic threshold of 0.5 green mirids per metre, the IPM guideline and recommendation by CottonLogic.
Pre-treatment counts of green mirid adults and nymphs, predatory beetles, predatory bugs, predatory lacewings and spiders were made by visual inspection of whole cotton plants. Both adults and nymphs of the beneficial insects were counted. Plants were assessed in randomly selected one-metre lengths of row of each treatment replicate (i.e. four metres per treatment). In all, two spray applications of each treatment were made. The first spray was made on 18 Jan. 2011. Post-treatment counts of the first spray application were taken 3, 7 and 14 days after treatment (DAT) (first spray). A second spray application was done on 1 Feb. 2011 when green mirid adults plus nymphs reached the threshold of 0.5 per metre. Post-treatment counts of the second spray application were taken 3, 7, 14, 21 and 28 DAT. Data are expressed as numbers of individuals of that species counted per metre for each treatment.

spiders [1] = test: Rate trial on conventional cotton refuge crops, Undabri 2012 (Example 12): spiders; type: in vivo, Lycosa spp., Oxyopes spp., Salticidae spp., Araneus spp.; conditions: DAT 511 250 mL/ha, 500 mL/ha and 1.0 L/ha; fipronil 62.5 mL/ha
Protocol: This trial was conducted using commercial conventional cotton refuge crops at Undabri in Goondiwindi (28° 55'S, 150° 31′E) from 14 Feb. to 6 Mar. 2012.
The efficacy of the following treatments against green mirids, green vegetable bugs and predatory insects was assessed: • 1. 250 mL/ha DAT 511 spore in oil (1×10^7 spores/ml); • 2. 500 mL/ha DAT 511 spore in oil (1×10^7 spores/ml); • 3. 1 L/ha DAT 511 spore in oil (1×10^7 spores/ml); • 4. 62.5 mL/ha fipronil; and • 5. Unsprayed (negative control).
The plots were arranged in a randomized complete block design with three replicates per treatment. Each replicated plot measured 8 m (8 rows) wide and 250 m long.
Foliar applications of each treatment were made on 14 Feb. 2012 using a ground spray rig fitted with flat fan nozzles to achieve a droplet size of 200 μm. All insecticide formulations were water miscible. All treatments were applied using a spray volume of 100 L/ha. The untreated (negative control) plot was left unsprayed and the plot treated with synthetic insecticide received two applications similar to, and on the same date as, the plots treated with the fungus.
For each replicate, visual counts of adults and nymphs of green mirids, green vegetable bugs (GVB), apple dimpling bugs and predatory insects on whole cotton plants were made in a randomly selected 1 m length of row of cotton plants (i.e. 6 m per treatment). […]

spiders [2] = test: Bollgard II cotton, Auscott-Togo 2012-13, Field 77 (Experiment 1): spiders; type: in vivo, Lycosa spp., Oxyopes spp., Salticidae spp., Araneus spp.; conditions: 62.5 mL/ha
Protocol: Two separate trials (Experiment 1 in Field 77; Experiment 2 in Field 63) were conducted in Bollgard II cotton crops on a commercial cotton farm at Auscott-Togo near Narrabri, New South Wales from 11 Feb. to 5 Mar. 2013 (Field 77) and 19 Feb. to 6 Mar. 2013 (Field 63). The cotton used for each of the trials was at the late squaring to pod setting and maturation stages which was fairly attractive to green mirids.
In both trials, the efficacy of the following treatments against green mirids and predatory insects was evaluated: • 1. 250 mL/ha DAT 511 spore in oil (1×10^7 spores/ml); • 2. 500 mL/ha DAT 511 spore in oil (1×10^7 spores/ml); • 3. 1 L/ha DAT 511 spore in oil (1×10^7 spores/ml); • 4. 62.5 mL/ha of fipronil; and • 5. Unsprayed (negative control).
The treatment plots were arranged in a randomized complete block design with six replicates per treatment. Each replicated plot measured 40 m wide (40 rows) and 90 m long.
Foliar application of each treatment was made on 28 Feb. (for both green mirids and beneficial insects) and 13 Mar. 2012 (for beneficial insects alone) using a ground spray rig fitted with flat fan nozzles to achieve a droplet size of 200 μm. The treatment was applied during the mornings when temperatures were between 20° C. and 28° C. The timing of treatment was based on the IPM Guidelines and recommendations by CottonLogic to use an economic threshold of 0.5 green mirids per metre (Deutscher and Wilson 1999; Khan et al. 2004).
Pre-treatment counts of green mirid adults and nymphs, predatory beetles, predatory bugs, predatory lacewings and spiders were made by visual inspection of whole cotton plants. Both adults and nymphs of beneficial insects were counted. Plants were assessed in randomly selected one-metre lengths of row of each replicate (i.e. 6 m per treatment). Post-treatment counts were made 3, 7, 14 and 21 days after treatment. Data are expressed as numbers of green mirid adults and nymphs counted per metre for each treatment.

Q: Which results are given for N#Cc1nn(-c2c(Cl)cc(C(F)(F)F)cc2Cl)c(N)c1[S+]([O-])C(F)(F)F (stereo not shown) [fipronil]?
A: number of predatory bugs per meter (predatory bugs; 3 DAT): 0.33 ± 0.33 a per meter; number of predatory bugs per meter (predatory bugs; 7 DAT): 0.67 ± 0.33 a per meter; number of predatory bugs per meter (predatory bugs; 14 DAT): 1.33 ± 0.33 a per meter; number of predatory bugs per meter (predatory bugs; pre-spray counts 18 Jan. 2011): 0.67 ± 0.33 a per meter; number of predatory bugs per metre (predatory bugs; 3 DAT): 0.33 ± 0.33a per metre; number of predatory bugs per metre (predatory bugs; 7 DAT): 0.33 ± 0.33a per metre; number of predatory bugs per metre (predatory bugs; 14 DAT): 0.67 ± 0.33a per metre; number of predatory bugs per metre (predatory bugs; 21 DAT): 1.00 ± 0.58a per metre; number of predatory bugs per metre (predatory bugs; 28 DAT): 0.67 ± 0.33a per metre; number of predatory bugs per metre (predatory bugs; pre-spray counts 1 Feb. 2011): 1.33 ± 0.33a per metre; effect on number of spiders per metre (spiders [1]): significantly lower; No. spiders per meter (spiders [2]; 3 DAT): 5.00 ± 1.73 a per meter; No. spiders per meter (spiders [2]; 7 DAT): 5.33 ± 1.86 a per meter; No. spiders per meter (spiders [2]; 14 DAT): 9.33 ± 0.67a per meter; No. spiders per meter (spiders [2]; 21 DAT): 8.67 ± 0.88 a per meter; No. spiders per meter (spiders [2]; pre-spray counts): 11.67 ± 1.67a per meter
